Consider 13 molecules from patent US20160115186A1, “PHOSPHORIC ACID/PHOSPHONIC ACID DERIVATIVES AND MEDICINAL USES THEREOF” (priority 2013, published 2016).

One series deals with DHBV. Kind of series: animal or person. The series is classed as in vivo, sheldrakes. To be noted: for Inhibition ratio (%) Day 14 of dosing / Inhibition ratio (%) day 7 after drug withdrawal / inhibition in vivo at 20 mg/kg / inhibition in vivo at 0.5 mg/kg / inhibition in vivo at 1 mg/kg: serum DHBV DNA; for inhibition in vivo at 25 mg/kg / inhibition in vivo at 20 mg/kg / inhibition in vivo at 0.5 mg/kg / inhibition in vivo at 1 mg/kg: Duck hepatitis B virus, po, 336 h; for inhibition in vivo at 20 mg/kg: 20 mg/kg intragastric once a day for 14 days; for inhibition in vivo at 0.5 mg/kg: 0.5 mg/kg intragastric once a day for 14 days; for inhibition in vivo at 1 mg/kg: 1.0 mg/kg intragastric once a day for 14 days. How it is done: The sheldrakes infected by vertical transmission and being positive in DHBV DNA detection were grouped randomly, 5/group. Water and different doses of the compound to be tested were intragastrically administrated, respectively, once a day, for 14 days. Venous blood samples were collected pre-dosing, at day 14 of dosing and at day 7 after drug withdrawal, the serum DHBV DNA content was measured using external standard TaqMan real-time fluorescence PCR method, and the inhibition ratio was calculated, as compared to the solvent group.

For the next series, the system named is Hep G 2.2.15 cells. Kind of series: in vitro. To be noted: MTT, day 3 post-dosing. The class given is cell-based. On the procedure: (§1) Hep G 2.2.15 cells were inoculated in a 96-well plate (with cell number being 5.5×10^4) to continually cultivate for 3 days, new culture solutions containing different concentrations of drugs were added, and 3 wells were provided in parallel; at day 3 post-dosing, MTT was added until 7.5 mg/ml, and continued to cultivate for 2 hours, the supernate was discarded, isopropanol containing 10% […] was added, 120 μl/well, and 0.4 μl/well was further added.

Series [1] is described as follows: Evaluation of liver targeting property (active drug in liver and blood, HPLC-MS/MS). The series is classed as in vivo, Balb/C mice. To be noted: intragastric, dose equimolar to fosfomycin 200 mg/kg, active drug (free phosphonic or phosphoric acid). An excerpt: Instrument: Finnigan Co. USA, TSQ Quantum-type liquid chromatography-mass spectrometry (LC/MS/MS), consisting of Finnigan Surveyor LC pump. Surveyor AS automatic sampler, electrospray ionization source (ESI) and triple tandem mass spectrometer. The control software is X calibur 1.4, Lcquan 2.0 data processing system is used for mass spectrometry data analysis. The chromatography column is Discovery ODS column (250 mm×4.6 mm, 5 μm), C18 guard column (4 mm×3.0 mm), the mobile phase is methanol-water-formic acid (10-30:90-70:0.5, V/V/V), the flow rate is 0.7 ml/min; the sample amount is 20 μL; and the column temperature is room temperature.

The subject of series [2] is liver damage in mice caused by CCl4. The class given is in vivo, Kunmin mice. To be noted: serum, CCl4 model, 0.2 mmol oral twice, 24 hours after second administration. How it is done: Kunmin mice (20 g) were grouped randomly (8/group). 0.2 mmol of a compound to be tested was orally administered; after 1 hour post-dosing, a 0.1% peanut oil solution of CCl4 was subcutaneously injected (10 mL/kg), to prepare a liver damage model; the normal saline was injected as a normal control group. After modeling for 12 hours, 0.2 mmol of the compound to be tested was orally administrated again. After 24 hours from the second administration, blood samples were collected to take serum specimen so as to determine ALT, AST.

For a further series, the system named is HBV. Kind of series: microbe, parasite or virus in culture. The series is classed as cell-based. On the procedure:
At day 10 post-dosing, 100 μl supernate was taken and the content of HBV DNA was measured by the method of Quantitative PCR to calculate IC50 value.

Series [3] relates to liver damage in mice caused by D-aminogalactose. The series is classed as in vivo, Kunmin mice. To be noted: serum, D-aminogalactose 750 mg/kg model, 0.2 mmol oral twice, 24 hours after second administration. How it is done: Kunmin mice (20 g) were grouped randomly (8/group). 0.2 mmol of a compound to be tested was orally administered; after 2 hours post-dosing, D-aminogalactose was intraperitoneally injected at a dose of 750 mg/kg to prepare a liver damage model, and the normal saline was subcutaneously injected as a normal control group. After modeling for 12 hours, 0.2 mmol of the compound to be tested was orally administrated again. After 24 hours from the second administration, blood samples were collected to take serum specimen so as to determine ALT, AST.

A further series in a line: in vitro. The class given is cell-based. To be noted: human; Hep G 2.2.15 cells, MTT, day 3 post-dosing. On the procedure:
as §1

For series [4] the following is noted: after MCC-478, phase I clinical trial, Chan et al. 2005; cited from earlier work.
For series [5] the following is noted: Kamiya et al. 2002; read-out: cytotoxicity CC50; cited from earlier work.
[6] abbreviates: 10 mg/kg intragastric once a day for 14 days.
Setting [7] is: Hep G 2.2.15 cells, HBV DNA in supernate at day 10 post-dosing, read-out: IC50.
Setting [8] is: read-out: Inhibition ratio (%) Day 14 of dosing.
Setting [9] is: read-out: Inhibition ratio (%) day 7 after drug withdrawal.
Setting [10] is: Hepatitis B virus, HepG2.2.15, 240 h, Hep G 2.2.15 cells, HBV DNA in supernate at day 10 post-dosing, read-out: IC50.
[11] abbreviates: 25 mg/kg intragastric once a day for 14 days.

Like-named read-outs stand apart in the source and are kept apart here.

As for `CC(C)OC(=O)C(C)NP(=O)(OCCOCn1cnc2c(=O)[nH]c(N)nc21)Oc1ccc2c(c1)OCO2` (centres unmarked) [Compound I27], in the series on DHBV (setting [6]), the “Inhibition ratio (%) Day 14 of dosing” value is 80.6% and the “Inhibition ratio (%) day 7 after drug withdrawal” value is given as 10.5%. Besides, the half-maximal cytotoxic concentration (CC50) – broadly, the concentration at which the toxic effect on the cells reaches its halfway point – in the series with Hep G 2.2.15 cells is over 200 µM. In addition, the Cliver/Cblood in series [1] (1 h post-dosing) worked out at 11.75. In [1] (6 h post-dosing), this molecule displayed a Cliver/Cblood of 8.02. Further, in [2], the ALT stood at 663 U/L and the AST is recorded as 940 U/L. In addition, in the series with HBV (setting [7]), the half-maximal inhibitory concentration (IC50) – broadly, the concentration at which inhibition is half-maximal – turned out to be 0.035 µM. In series [3], the ALT turned out to be 713 U/L and the AST was found to be 522 U/L.

With `CC(NP(=O)(OCCOCn1cnc2c(=O)[nH]c(N)nc21)Oc1ccc2c(c1)OCO2)C(=O)OC1CCCCC1` (centres unmarked) [Compound I28], the 50% cytotoxic concentration (CC50) in the series on Hep G 2.2.15 cells was over 200 µM.

Consider `CC(C)OC(=O)[C@H](C)N[P@](=O)(CO[C@H](C)Cn1cnc2c(N)ncnc21)Oc1ccccc1.O=C(O)/C=C/C(=O)O` [GS-7340, 9-[(R)-2-[[(S)-[[(S)-1-(isopropoxycarbonyl)-ethyl]-amino]-phenoxylphosphonyl]-methoxyl]-propyl]-adenine fumarate, reference compound], for which, in the series with Hep G 2.2.15 cells, it took 94.2 µM to reach half-maximal cytotoxicity (CC50). Moreover, in series [2], the ALT was determined as 2483 U/L and the AST is listed as 2645 U/L. In the series with HBV (setting [7]), the concentration for half-maximal inhibition (IC50) was found to be 0.071 µM. Besides, in [3], the ALT is recorded as 1064 U/L and the AST was 1320 U/L.

“(benzo[1,3]dioxolan-5-yl) [5-[2-amino-5-(2-methylpropyl)-thiazol-4-yl]-furan-2-yl]-phosphonate-(1-isopropoxycarbonylethylamino)-phosphonamide [Compound I43]” showed a CC50 in the series on Hep G 2.2.15 cells of over 200 µM. Also, in series [2], the ALT stood at 507 U/L and the AST is on record as 280 U/L. In series [3], the ALT was found to be 256 U/L and the AST was 517 U/L.

As for `COC(=O)C(C)NP(=O)(OCCOCn1cnc2c(=O)[nH]c(N)nc21)Oc1ccc2c(c1)OCO2` (centres unmarked) [Compound I41], in the series with DHBV (setting [6]), the “Inhibition ratio (%) Day 14 of dosing” value is reported as 72.5% and the “Inhibition ratio (%) day 7 after drug withdrawal” value was 15.7%. For the same molecule, the CC50 in the series on Hep G 2.2.15 cells was over 200 µM.

For `COc1ccc(Sc2nc(N)nc3c2ncn3CCOCP(=O)(N[C@H](C)C(=O)OC(C)C)Oc2ccc3c(c2)OCO3)cc1` (some centres unmarked) [Compound I26, 2-amino-6-(4-methoxylphenyl)thio-9-[[[(((benzo[1,3]dioxolan-5-yl)-oxyl)-1-isopropyloxylcarbonylethylamino)-phosphonyl]-methoxyl]-ethyl]-purine], the inhibition in vivo at 25 mg/kg was determined as 93.5% in the series with DHBV (setting [8]) and 11.5% in the series on DHBV (setting [9]). This molecule returned a cytotoxic concentration (CC50) at 3 days in the series “in vitro” of over 200 µM. Also, the ALT was determined as 521 U/L in series [2] and 212 U/L in series [3]. Moreover, the AST is on record as 363 U/L in series [2] and 586 U/L in [3]. Besides, inhibition with HBV (Hepatitis B virus, HepG2.2.15, 240 h) was half-maximal at 0.039 µM (IC50).

`COC(=O)C(C)NP(=O)(OCC1OC(n2ccc(N)nc2=O)CS1)Oc1ccccc1` (centres unmarked) [Cf1109, reference compound]: the inhibition in vivo at 20 mg/kg in the series on DHBV (setting [8]) was found to be 68.8%; in the series on DHBV (setting [9]), 5.38%. The molecule also came in with a half-maximal cytotoxic concentration (CC50) in “in vitro” of 82 µM. The ALT in series [2] was 2048 U/L; in [3] it was 191 U/L. The AST in series [2] stood at 3351 U/L; in [3], 140 U/L. Moreover, in the series on HBV (setting [10]), the IC50 came out at 0.13 µM.

Consider `COc1ccc(Sc2nc(N)nc3c2ncn3CCOCP(=O)(O)O)cc1` [Compound 602076], for which the “blood concentration relative to that of the monoester 602074” value in [4] was “one tenth”.

For the molecule `C=C1[C@H](CO[P@](=O)(N[C@@H](C)C(=O)OC(C)C)Oc2ccc3c(c2)OCO3)[C@@H](O)C[C@@H]1n1cnc2c(=O)[nH]c(N)nc21` [Compound I38-a], the figures for the inhibition in vivo at 0.5 mg/kg in the series on DHBV (setting [8]) and in the series on DHBV (setting [9]) were 76.2% and 31.4%, respectively. The molecule further gave a CC50 in “in vitro” of 139 µM. For the same molecule, the ALT in [2] worked out at 410 U/L; in series [3], 177 U/L. Moreover, the AST is 289 U/L in [2] and 275 U/L in [3]. Also, the IC50 with HBV (setting [10]) is 0.001 µM.

`C=C1[C@H](CO[P@@](=O)(N[C@@H](C)C(=O)OC(C)C)Oc2ccccc2)[C@@H](O)C[C@@H]1n1cnc2c(=O)[nH]c(N)nc21` [i-5, 2-amino-1,9-dihydro-9-[(1S,3R,4S)-4-hydroxyl-3-((S)—((S)-1-isopropoxycarbonylethylamino-phenoxy-phosphoryl)-oxymethyl)-2-methylenecyclopentyl]-6H-purin-6-one, reference compound]: the inhibition in vivo at 1 mg/kg was found to be 88.9% in the series with DHBV (setting [8]) and 15.7% with DHBV (setting [9]). Besides, the CC50 in “in vitro” stood at 193 µM. The ALT turned out to be 551 U/L in [2] and 1512 U/L in series [3]. Also, the AST came out at 641 U/L in series [2] and 1646 U/L in [3]. Besides, the half-inhibitory concentration (IC50) with HBV (setting [10]) was 0.012 µM.

Turning to `CC(C)OC(=O)[C@H](C)N[P@](=O)(CO[C@H](C)Cn1cnc2c(N)ncnc21)Oc1ccc2c(c1)OCO2` [Compound I21-b], in the series on DHBV (setting [11]), the “Inhibition ratio (%) Day 14 of dosing” value is 82.3% and the “Inhibition ratio (%) day 7 after drug withdrawal” value stood at 39.2%. This molecule also came in with a Cliver/Cblood in [1] (1 h post-dosing) of 9.15. For the same molecule, the Cliver/Cblood in [1] (6 h post-dosing) was 14.37. In series [2], the ALT is 251 U/L and the AST is recorded as 152 U/L. Besides, the IC50 in the series on HBV (setting [7]) came to 0.012 µM. In [3], the ALT is given as 514 U/L and the AST is recorded as 268 U/L.

As for `CC(C)OC(=O)[C@H](C)N[P@@](=O)(CO[C@H](C)Cn1cnc2c(N)ncnc21)Oc1ccc2c(c1)OCO2` [Compound I21-a], in the series on DHBV (setting [11]), the “Inhibition ratio (%) Day 14 of dosing” value is recorded as 70.8% and the “Inhibition ratio (%) day 7 after drug withdrawal” value stood at 25.0%. The same molecule displayed a Cliver/Cblood in series [1] (1 h post-dosing) of 8.45. The same molecule yielded a Cliver/Cblood in series [1] (6 h post-dosing) of 12.02. In series [2], this molecule showed an ALT of 353 U/L and an AST of 191 U/L. Further, the half-maximal inhibitory concentration (IC50) in the series with HBV (setting [7]) came to 0.15 µM. In series [3], this molecule yielded an ALT of 379 U/L and an AST of 169 U/L.

With `COc1ccc(Sc2nc(N)nc3c2ncn3CCOCP(=O)(O)OCC(F)(F)F)cc1` [Compound 602074], the 50% cytotoxic concentration (CC50) in series [5] was 548 µM.
